Source: patent US10406166B2, “Antimicrobial compound” (priority 2015, dated 2019)
Where two headings read alike, the source gives them in different places.

Columns and labels:
Bacillus subtilis = assay: Antimicrobial susceptibility (MIC, agar dilution); type: cell-based; settings: Isosensitest agar, 128-1 μg/mL, 37° C. for 24 h
Procedure: (§1) For each putative antimicrobial, determination of the antimicrobial susceptibility was performed in strict accordance with the recommendations of the British Society for Antimicrobial Chemotherapy. Isosensitest agar (Oxoid) was prepared according to the manufacturer's instructions and sterilized by autoclaving at 116° C. for 20 min. This was then cooled to 50° C. in a waterbath. A 10 mg sample of each antimicrobial was dissolved in 1 mL DMSO. A 256 μL aliquot was added to 19.744 mL of molten Isosensitest agar at 50° C. and mixed well. This was poured into a Petri dish to produce a culture plate containing a final concentration of 128 μg/mL. Smaller volumes of solution (ranging from 128-2 μL) were also incorporated into agar plates in similar fashion to produce a final concentration range of 128-1 μg/mL. A set of control plates was prepared containing DMSO at an identical concentration range without antimicrobial.
(§2) A panel of microorganisms was obtained from the National Collection of Type Cultures (NCTC), Colindale, UK, the National Collection of Pathogenic Fungi (NCPF), Colindale, UK, and the American Type Culture Collection (ATCC), Manassas, Va. USA. The panel included a range of pathogenic species and comprised Bacillus subtillis, Listeria monocytogenes, Staphyloccci epidermidis, Staphylococcus aureus, Staphylococcus aureus (MRSA) and Streptococcis pyogenes, all of which are Gram-positive bacteria. Each strain was cultured onto Columbia agar (Oxoid) and incubated overnight at 37° C. Colonies were then suspended in sterile distilled water (SDW) to produce a suspension of 1.5×10^8 colony forming units CFU/mL using a densitometer. This suspension was then diluted 1/15 in SDW and 1 μL was inoculated onto all test media using a semi-automated multipoint inoculator (final inoculum: 10 000 CFU per spot). All media were incubated at 37° C. for 24 h and examined for the presence of growth. […] All tests were repeated on a separate occasion to ensure reproducibility.
(§3) Determination of the antimicrobial susceptibility of the samples containing the isolated R and S enantiomers was performed as set out in Example 2.

Listeria monocytogenes = assay: Antimicrobial susceptibility (MIC, agar dilution); type: cell-based; settings: Isosensitest agar, 128-1 μg/mL, 37° C. for 24 h
Procedure: as §1, §2, §3

Staphyloccci epidermidis = assay: Antimicrobial susceptibility (MIC, agar dilution); type: cell-based; settings: Isosensitest agar, 128-1 μg/mL, 37° C. for 24 h
Procedure: as §1, §2, §3

[1] = system: Staphylococcus aureus (MRSA); assay: Antimicrobial susceptibility (MIC, agar dilution); type: cell-based; settings: Isosensitest agar, 128-1 μg/mL, 37° C. for 24 h
Procedure: as §1, §2, §3

Staphylococcus aureus = assay: Antimicrobial susceptibility (MIC, agar dilution); type: cell-based; settings: Isosensitest agar, 128-1 μg/mL, 37° C. for 24 h
Procedure: as §1, §2, §3

Streptococcis pyogenes = assay: Antimicrobial susceptibility (MIC, agar dilution); type: cell-based; settings: Isosensitest agar, 128-1 μg/mL, 37° C. for 24 h
Procedure: as §1, §2, §3

Cell cytotoxicity CC50 = type: cell-based; settings: human, 6-8 days, top concentration 100 μM, read-out: CC50 (concentration at which 50% cell toxicity is observed)
Text: (§4) Notes Cell obtained from ATCC and virus prep was subjected to one round of centrifugation through a 40% (V/V) glycerol to remove any interferon produced from infected cells. Growth medium was Dulbecco's modified Eagle's medium (DMEM) with 10% (v/v) foetal calf serum (FCS), Viral maintenance medium was DMEM+2% (v/v) FCS
Cell Cytotoxicity—CC50 (concentration at which 50% cell toxicity is observed):
A549 cells and HeLa cells were used to seed a set of 96 well plates grown until 50% confluent, a 2 fold serial dilution of 5-Phenyl-S-3-amino-2,3-dihydro-1H-1,4-benzodiazepin-2-one (5) was performed on each cell line with DMSO (only) as control starting with 100 μM of 5-Phenyl-S-3-amino-2,3-dihydro-1H-1,4-benzodiazepin-2-one (5). Medium used was DMEM+2% FCS (normal medium for viral growth).
Cells were allowed to grow for 6-8 days to mimic a TCID50 assay after which cell viability was determined by adding Almar blur (similar to XTT) and reading at 600 nm (excitation 540 nm). No significant difference was observed between cells treated with 5-Phenyl-S-3-amino-2,3-dihydro-1H-1,4-benzodiazepin-2-one (5) and the DMSO control. No significant difference was observed between HeLa and A549 cells.

RSV A2 strain = assay: Infected cell viability assay (A549 only); type: cell-based, Human RSV (Respiratory Syncytial Virus); settings: human respiratory syncytial virus, moi 0.1, 8 days
Procedure: as §4
96 wells plates were set up as previously described. As before a 2 fold serial dilution of 5-Phenyl-S-3-amino-2,3-dihydro-1H-1,4-benzodiazepin-2-one (5) was added prior to addition of virus at a multiplicity of infection (moi) of 0.1, as determined by a plaque assay, in a volume of 50 μl (starting conc 100 μM). After incubating for 4 hours RSV A2 strain was added at an moi of 0.1 maintaining the concentration of 5-Phenyl-S-3-amino-2,3-dihydro-1H-1,4-benzodiazepin-2-one (5). As before, DMSO was the control. The final lane was a mock infected minus 5-Phenyl-S-3-amino-2,3-dihydro-1H-1,4-benzodiazepin-2-one (5) to show viability of cells after 8 days incubation.
Every two days for up to 8 days the media plus drug was replaced to maintain activity, after 8 days cell viability was assayed by cell staining with methylene blue. Each experiment was performed twice with similar results, see FIG. 14.
An alternative experiment was set up as before except virus, at an moi of 0.1, was added before the drug and allowed to incubate for 4 hours. […]

RSV = assay: Plaque reduction assay; type: cell-based, Human RSV (Respiratory Syncytial Virus); settings: A549, 10 μM added 3-4 hours before RSV; control titre 4.5×10^5
Procedure: as §4
A549 cells were seeded into a T25 flask and grown until 60-70% confluent. To one set of flasks (n=3) 5-Phenyl-S-3-amino-2,3-dihydro-1H-1,4-benzodiazepin-2-one (5) in DMSO was added at a concentration of 10 μM and allowed to incubate for 3-4 hours before the addition of RSV at an […] and incubated until extensive cytopathic effect (cpe) was evident, usually after 3 days. The concentration of 5-Phenyl-S-3-amino-2,3-dihydro-1H-1,4-benzodiazepin-2-one (5) was kept constant by replacing the medium each day (RSV is largely cell associated). After which virus was harvested by homogenising the cells in a final volume of 1 ml. The viral titre was determined by plaque assay and staining after 8 days. A control assay was conducted using DMSO in place of the DMSO solution of 5-Phenyl-S-3-amino-2,3-dihydro-1H-1,4-benzodiazepin-2-one (5). […]

[2] = aqueous; cited from earlier work

Structure (SMILES): O=c1n(-c2c(F)c(F)nc(F)c2F)c2ccccc2n1-c1c(F)c(F)nc(F)c1F
- melting point: 154.9 to 156 °C

Structure (SMILES): O=C1C(=O)N(c2c(F)c(F)nc(F)c2F)c2ccccc21
- melting point: 160.3 to 162.6 °C

Structure (SMILES): COC(=O)CNc1c(F)c(F)nc(F)c1F
- melting point: 67.8 to 68.7 °C

Structure (SMILES): O=C1Nc2ccccc2C(c2ccccc2)=NC1Nc1c(F)c(F)nc(F)c1F (racemic) [Compound 5, 5-Phenyl-3-[(tetrafluoropyridin-4-yl)amino]-2,3-dihydro-1H-1,4-benzodiazepin-2-one]
- antibacterial activity (by minimum inhibitory concentration) (Bacillus subtilis): not
- antibacterial activity (by minimum inhibitory concentration) (Listeria monocytogenes): exhibited antibacterial activity
- antibacterial activity (by minimum inhibitory concentration) (Listeria monocytogenes; listed as racemate): effective
- antibacterial activity (by minimum inhibitory concentration) (Staphyloccci epidermidis): exhibited antibacterial activity
- antibacterial activity (by minimum inhibitory concentration) (Staphyloccci epidermidis; listed as racemate): effective
- antibacterial activity (by minimum inhibitory concentration) [1]: exhibited antibacterial activity
- antibacterial activity (by minimum inhibitory concentration) ([1]; listed as racemate): effective
- antibacterial activity (by minimum inhibitory concentration) (Staphylococcus aureus): exhibited antibacterial activity
- antibacterial activity (by minimum inhibitory concentration) (Staphylococcus aureus; listed as racemate): effective
- antibacterial activity (by minimum inhibitory concentration) (Streptococcis pyogenes): exhibited antibacterial activity
- antibacterial activity (by minimum inhibitory concentration) (Streptococcis pyogenes; listed as racemate): effective
- CC50 (Cell cytotoxicity CC50; A549 cells): ≥ 100 µM
- CC50 (Cell cytotoxicity CC50; HeLa cells): ≥ 100 µM
- EC50 (RSV A2 strain; A549, compound added 4 hours before virus, Reed and Meunch, read-out: half maximal effective concentration (EC50)): 2.4 µM
- EC50 (RSV A2 strain; A549, virus added 4 hours before the drug, Reed & Meunch, read-out: EC50): ~3 µM
- viral titre after exposure (RSV): 2.3×10^3 viral infectivity units

Structure (SMILES): O=C1Nc2ccccc2C(c2ccccc2)=N[C@@H]1Nc1c(F)c(F)nc(F)c1F (single isomer, unassigned; enantiomer 5) [S enantiomer, 5-Phenyl-S-3-[(tetrafluoropyridin-4-yl)amino]-2,3-dihydro-1H-1,4-benzodiazepin-2-one]
- antibacterial activity (by minimum inhibitory concentration) (Bacillus subtilis): effective
- antibacterial activity (by minimum inhibitory concentration) (Listeria monocytogenes): effective
- antibacterial activity (by minimum inhibitory concentration) (Staphyloccci epidermidis): effective
- antibacterial activity (by minimum inhibitory concentration) [1]: effective
- antibacterial activity (by minimum inhibitory concentration) (Staphylococcus aureus): effective
- antibacterial activity (by minimum inhibitory concentration) (Streptococcis pyogenes): effective

Structure (SMILES): O=C1Nc2ccc(Cl)cc2C(c2ccccc2Cl)=NC1O (centres unmarked) [Lorazepam]
- pKa [2]: ~13.0

Structure (SMILES): O=C1Nc2ccccc2C(c2ccccc2)=N[C@H]1Nc1c(F)c(F)nc(F)c1F [R enantiomer, 5-Phenyl-R-3-[(tetrafluoropyridin-4-yl)amino]-2,3-dihydro-1H-1,4-benzodiazepin-2-one]
- antibacterial activity (by minimum inhibitory concentration) (Staphyloccci epidermidis): effective
- antibacterial activity (by minimum inhibitory concentration) [1]: effective
- antibacterial activity (by minimum inhibitory concentration) (Staphylococcus aureus): effective
